Consider 35 compounds from PubChem BioAssay (NCI).

Broadly, the TGI is the concentration giving total growth inhibition. For orientation: GI50 means the concentration that inhibits growth by half.

Test systems include LXFL 529 NSCLC; DMS 114 small cell lung; DMS 273 small cell lung; MDA-N; MDA-MB-231 breast; HOP-18 NSCLC; XF 498 CNS; M19-MEL melanoma.
Holding throughout (test): DTP human tumour cell line panel, 48 h

The structures appear in SMILES notation.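 Following 48 hours of exposure in 96-well plates, responses at five concentrations were used to interpolate endpoints linearly. GI50 = concentration required for 50% inhibition of growth. TGI: concentration producing complete growth inhibition.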

Regarding `CN(C)CCSc1nccc(-c2cc3ccccc3s2)n1`, the TGI in the assay on LXFL 529 NSCLC was found to be 30.9 µM; with DMS 114 small cell lung, 51.6 µM; in the assay with DMS 273 small cell lung, 34.1 µM.
In turn, `O=C(OCC(OC(=O)c1ccccc1)C(OC(=O)c1ccccc1)C(OC(=O)c1ccccc1)c1cnn(-c2ccccc2)n1)c1ccccc1` (stereo not given) returned a TGI in the assay with MDA-N of more than 100 µM.
`CCOC(CN(C)C(=S)Nc1cccc2ccccc12)OCC`: the TGI in the assay with MDA-N and in the assay with MDA-MB-231 breast was more than 10 µM each time.
For `CC[C@@]1(O)C(=O)OCc2c1cc1n(c2=O)Cc2c-1nc1cc(F)c(C)c3c1c2[C@@H](N)CC3`, in the assay on MDA-MB-231 breast, the GI50 is 0.162 µM and the TGI was more than 100 µM.
As to `COc1ccc(Cc2cnc(NC(=O)c3ccc4c(c3)OCCO4)s2)cc1`, in the assay with MDA-MB-231 breast, the GI50 was 0.0379 µM and the TGI came out at 22.6 µM.
In the same order, the values of `Cn1c(=O)c2c(ncn2CC(=O)Nc2ccc(-c3ccccc3)nn2)n(C)c1=O` are 23.1 µM and more than 100 µM.
In the assay on MDA-MB-231 breast, `CCC(=O)Nc1ccc(N=NN(C)C)cc1` showed a TGI of more than 100 µM.
On to `COC(=O)CCC1=C(CC(=O)OC)C(C)=N/C1=C\c1[nH]c(-c2ccc[nH]2)cc1OC`, for which, in the assay on MDA-MB-231 breast, the GI50 is 2.37 µM and the TGI came to 11.6 µM.
Consider `C=C1CC[C@@H](C(C)C)C[C@@H]2[C@H]([C@H](O)C[C@]2(C)O)[C@@]2(C)CC[C@@H]1O2`, for which, in the assay with MDA-MB-231 breast, the GI50 is 13.9 µM and the TGI came to 28 µM.
`O=c1nc(-c2ccccc2)cc(-c2ccccc2O)[nH]1`: the TGI in the assay with LXFL 529 NSCLC, in the assay on DMS 114 small cell lung, in the assay with HOP-18 NSCLC, with XF 498 CNS, in the assay with M19-MEL melanoma and in the assay on DMS 273 small cell lung was more than 100 µM each time.
Consider `Cc1ccc(Nc2nnc(-c3ccc4c(c3)OCO4)o2)c(C)c1`, for which the TGI in the assay on MDA-N and in the assay on MDA-MB-231 breast was more than 100 µM each time.
With `O=C1CSC(c2ccc(-c3nc4ccccc4s3)cc2)=N1`, in the assay with MDA-MB-231 breast, the GI50 is 24.1 µM and the TGI was more than 100 µM.
For the compound `O=c1c2ccccc2nc(-c2ccccc2)n1NC(=S)Nc1ccccc1`, the TGI is more than 100 µM with LXFL 529 NSCLC; 73.7 µM with DMS 114 small cell lung; more than 100 µM in the assay on HOP-18 NSCLC; more than 100 µM in the assay on M19-MEL melanoma; more than 100 µM in the assay on DMS 273 small cell lung.
`CC/C=C/C/C=C/C/C=C/C/C=C/C/C=C/C/C=C/CCC(=O)Nc1ccn([C@@H]2O[C@H](CO)[C@@H](O)C2(F)F)c(=O)n1`: in the assay with MDA-MB-231 breast, the GI50 was 7.65 µM and the TGI came to 28.9 µM.
In the assay on DMS 114 small cell lung, `Oc1ccc(Br)cc1C=Nc1ccc(N=Cc2cc(Br)ccc2O)cc1` returned a TGI of more than 100 µM.
For the compound `O=C(N/N=C/c1c(Cl)cccc1Cl)c1ccc(C(F)(F)F)nc1Nc1cccc(C(F)(F)F)c1`, in the assay on MDA-MB-231 breast, the GI50 was 1.51 µM and the TGI was found to be 11.1 µM.
In the same order, the values of `COc1ccc(/C=C(/c2ccccc2)[N+](=O)[O-])cc1` are 1.59 µM and 3.09 µM.
Turning to `COc1ccc2c(c1)C(C)Cc1c(ncnc1-n1cnc3cc(C)ccc31)N2C` (stereo not given), in the assay on MDA-MB-231 breast, the GI50 was 0.229 µM and the TGI amounted to 18.6 µM.
On to `Cc1ccc(S(=O)(=O)NC(=O)NC2=NC(C)(C)N(c3ccc(Cl)c(Cl)c3)C(N)=N2)cc1`, for which the TGI with MDA-N and in the assay on MDA-MB-231 breast was more than 100 µM each time.
Turning to `C=CCn1c2c(sc1=S)C(S)N=CN2` (stereo not given), the TGI in the assay on LXFL 529 NSCLC is more than 100 µM; with DMS 114 small cell lung, more than 100 µM; in the assay with HOP-18 NSCLC, 70.1 µM; with XF 498 CNS, more than 100 µM; in the assay with M19-MEL melanoma, more than 100 µM; in the assay with DMS 273 small cell lung, more than 100 µM.
Consider `O=C(O)C12CC3(C(=O)O)CC(C(=O)O)(CC(C(=O)O)(C1)C3=O)C2=O`, for which the TGI with MDA-N and in the assay with MDA-MB-231 breast was more than 100 µM in each case.
Take `C[C@]12CC[C@@H]3c4ccc(O)c([N+](=O)[O-])c4CC[C@H]3[C@@H]1CC[C@@H]2NS(=O)(=O)c1cccc(Br)c1`: in the assay with MDA-MB-231 breast, the GI50 was 1.85 µM and the TGI turned out to be 4.14 µM.
Regarding `CC1C(=O)OC2CC[N+]3([O-])CC=C(COC(=O)C(C)(O)C1(C)O)C23` (stereo not given), the TGI in the assay with MDA-N and in the assay with MDA-MB-231 breast was more than 100 µM throughout.
In the case of `COCOc1ccc(C2(O)Oc3cc(OCOC)ccc3C2C)c(O)c1` (stereo not given), the TGI is 28.7 µM in the assay on MDA-N and 25.3 µM in the assay with MDA-MB-231 breast.
In the case of `Cc1cccc(C)c1NC(=O)C(=O)CC(=O)c1cccc([N+](=O)[O-])c1`, the TGI with LXFL 529 NSCLC, in the assay with HOP-18 NSCLC, in the assay on XF 498 CNS, in the assay on M19-MEL melanoma and in the assay with DMS 273 small cell lung was more than 100 µM in each case.
As to `COc1ccc2c(Oc3ccc(NC(=O)c4c(C)n(CC(C)(C)O)n(-c5ccccc5)c4=O)nc3)ccnc2c1`, in the assay on MDA-MB-231 breast, the GI50 was 8.92 µM and the TGI is more than 93.5 µM.
Consider `Cc1cc(C)n(-c2nnc3n2N=C(c2ccc(-c4ccccc4)cc2)CS3)n1`, for which, in the assay on MDA-MB-231 breast, the GI50 is 3.22 µM and the TGI is more than 100 µM.
For the compound `CC(O)CC(O)(C(F)(F)F)C(F)(F)F` (stereo not given), the TGI in the assay with MDA-N and in the assay with MDA-MB-231 breast was more than 10 µM throughout.
With `C/C(=N\NC(=S)N1CC2CCC(CC2)C1)c1ccccn1`, in the assay with MDA-MB-231 breast, the GI50 was 0.156 µM and the TGI was determined as 2.45 µM.
For the compound `COC1=C(Br)C(=O)c2nc(C)ccc2C1=O`, the TGI in the assay with LXFL 529 NSCLC worked out at 16.7 µM; in the assay on DMS 114 small cell lung, 31.6 µM; in the assay with HOP-18 NSCLC, 30.9 µM; in the assay with M19-MEL melanoma, 27.8 µM; in the assay with DMS 273 small cell lung, 31.8 µM.
As for `O=S1(=O)OCCOS(=O)(=O)C1Cl`, the TGI with LXFL 529 NSCLC, in the assay on DMS 114 small cell lung, in the assay with HOP-18 NSCLC, in the assay on M19-MEL melanoma and in the assay on DMS 273 small cell lung was more than 100 µM in each case.
For the compound `OCCNCCOc1ccc(/C(=C(/Cl)c2ccccc2)c2ccccc2)cc1`, the TGI in the assay with LXFL 529 NSCLC amounted to 19.7 µM; in the assay with DMS 114 small cell lung it was 29.6 µM; in the assay with HOP-18 NSCLC, 33.4 µM; in the assay with XF 498 CNS, 18.2 µM; in the assay with M19-MEL melanoma, 23.5 µM.
As to `CC(C)C1=C2CCC3(C)C(CCC4C5C6OCC5(CCC6(C)C)CCC43C)C2(C)CC1` (stereo not given), the TGI was found to be 30.2 µM with MDA-N and 37.3 µM in the assay on MDA-MB-231 breast.
`Nc1ccc2nc3n(c2c1)C(=O)c1ccccc1-3` displayed a TGI with MDA-N of more than 100 µM.
Turning to `Nc1ccc2[nH]cc(CCC(=O)O)c2c1`, the TGI in the assay on MDA-N and in the assay on MDA-MB-231 breast was more than 100 µM in each case.
